This is an account of results in US20250084026A1, “NOVEL SALT OF 1-SULFONYL PYRROLE DERIVATIVE, PREPARATION METHOD THEREOF AND PHARMACEUTICAL COMPOSITION COMPRISING THEREOF” (ILDONG PHARMACEUTICAL CO., LTD., priority 2021, published 2025).

≈ marks a conversion by molar mass, not a printed value. Where two headings read alike, the source gives them in different places.

Holding throughout (format): physicochemical
Data set [1] can be described thus: Solubility in bio-relevant media (water, SGF, FaSSIF, FeSSIF), HPLC. The following applies: for solubility at 1 h / solubility at 24 h: thermodynamic from solid; for solubility at 1 h: read-out: Solubility-1 h concentration; for solubility at 24 h: read-out: Solubility-24 h concentration. The method, then: Solubility in bio-relevant media, i.e., stimulated gastric fluid (SGF), fasted state simulated intestinal fluid (FaSSIF), and fed state simulated intestinal fluid (FeSSIF) of the free base and the fumarate salt of 1-(5-(2-fluorophenyl)-4-methoxy-1-((6-methoxypyridin-3-yl) sulfonyl)-1H-pyrrole-3-yl)-N-methylmethanamine that was confirmed through the salt screening analysis result, was confirmed.
Buffers for the bio-relevant media were prepared as follows. • Water: Laboratory Milli-Q purified water. • SGF (Stimulated Gastric Fluid): 2.0 g of sodium chloride and 7 mL of hydrochloric acid dissolved in 1000 ml of water was used. • FaSSIF (Fasted State Simulated Intestinal Fluid): A commercial product purchased from Bio-Relevant Company and manufactured according to instructions was used. • FeSSIF (Fed State Simulated Intestinal Fluid): A commercial product purchased from Bio-Relevant Company and prepared according to instructions was used.
For the experiment, about 10 mg of compound (10 mg as free base form) was weighed into each glass vial and then 1 mL of medium was added (final concentration of 10 mg/mL). Then, the sample was continuously stirred in a magnetic stirrer at 37° C. at a speed of 200 rpm. After stirring for 1 hour and 24 hours, 0.5 mL of the sample solution was transferred to a 1.5 mL centrifuge tube and centrifuged at 12,000 rpm for 5 minutes. The supernatant was diluted with suitable methanol and analyzed by HPLC.
The free base was selected as a standard sample to quantify the solubility, and about 10 mg of the free base was weighed into a 25 mL flask and dissolved in methanol to the curve.
The residue of the compound in water was tested by XRPD to determine the solid state.

Data set [2] is described as follows: Drug stability under stress condition, 60° C. open, XRPD and HPLC. The following applies: for HPLC peak RT 7.423 min, RRT 0.74 / HPLC peak RT 10.063 min, RRT 1.00 / HPLC peak RT 10.277 min, RRT 1.02: in %; for Stability under harsh conditions (in words): up to Week 2. The method, then:
10 mg and 40 mg of the free base and the fumaric acid salt of 1-(5-(2-fluorophenyl)-4-methoxy-1-((6-methoxypyridin-3-yl) sulfonyl)-1H-pyrrol-3-yl)-N-methylmethanamine were weighed into each vial and stored under stress conditions to investigate stability.
The stress conditions are as follows: • high temperature open room condition: 60° C.; • The bottle neck of the vial was wrapped with aluminum foil with pinholes to avoid contamination, and the samples were analyzed by XRPD and HPLC at the onset (Day 0), week 1 and week 2.

Data set [3] is described as follows: Dynamic vapor sorption (DVS) hygroscopicity. Conditions: 25° C., 0%~95%~0% RH cycle; compared to the known hygroscopicity evaluation standard. The method, then: Using DVS intrinsic manufactured by Surface Measurement Systems Ltd, about 20 mg of the sample was tested for water sorption/desorption profiles at 25° C. under a 0%˜95%˜0% relative humidity (RH) cycle using the following parameters.
Equilibrium: dm/dt: 0.01%/min.
Range of RH (%) measurement step: 0%˜95%˜0%; RH (%) measurement step: 5%

A short description of data set [4]: Drug stability at 40° C., 75% RH for 8 weeks (XRPD, TGA, HPLC). The method, then:
In order to confirm the stability of the fumarate salt of 1-(5-(2-fluorophenyl)-4-methoxy-1-((6-methoxypyridin-3-yl) sulfonyl)-1H-pyrrole-3-yl)-N-methylmethanamine prepared under an isopropyl alcohol solvent, water sorption and/or hydrate formation were confirmed under conditions of 75% RH at 40° C. for 8 weeks.
To proceed with the experiment, 100 mg of the fumarate salt of 1-(5-(2-fluorophenyl)-4-methoxy-1-((6-methoxypyridin-3-yl) sulfonyl)-1H-pyrrole-3-yl)-N-methylmethanamine was put in a vial with a wide mouth (Experimental group 1), and the other sample was put in a vial that is double-packed with a polyethylene bag (Experimental group 2). Then, both samples were placed inside a 40° C., 75% RH chamber and monitored at 2-week intervals.
The XRPD values were checked every two weeks to identify whether or not there was a change in the crystalline form, and the results are shown in Table 11.

The nature of data set [5]: Thermal gravimetric analysis (TGA) weight loss. The method, then: Using Pyris 1 TGA manufactured by PerkinElmer, Inc., a compound sample (about 5 mg) was weighed in pans under nitrogen purge at a ramp rate of 20° C./min over the range of 30 to 300° C.
[6] abbreviates: Week 2, 4, 6 and 8, Experimental groups 1 and 2.

`CNCc1cn(S(=O)(=O)c2ccc(OC)nc2)c(-c2ccccc2F)c1OC` [Free base, 1-(5-(2-fluorophenyl)-4-methoxy-1-((6-methoxypyridin-3-yl)sulfonyl)-1H-pyrrol-3-yl)-N-methylmethanamine] registered a Solubility-24 h concentration in data set [1] (water, 37° C., 24 h) of 8.63 mg/mL (≈ 21.3 mM). Further, in data set [2] (60° C., Week 1), the “% Impurities” value turned out to be 20.94%; the Assay % is 67.44%; the “Crystalline form (XRPD)” value is listed as “Melted”; the HPLC peak RT 6.797 min, RRT 0.68 stood at 0.43%. In addition, in data set [2] (60° C., Week 1), the HPLC peak RT 7.563 min, RRT 0.75 was found to be 1%; the HPLC peak RT 9.327 min, RRT 0.93 amounted to 0.18%; the HPLC peak RT 10.813 min, RRT 1.07 is 0.57%; the “HPLC peak RT 7.423 min, RRT 0.74” value was determined as 18.86. In addition, in data set [2] (60° C., Week 1), the “HPLC peak RT 10.063 min, RRT 1.00” value came to 79.06 and the “HPLC peak RT 10.277 min, RRT 1.02” value amounted to 9.95. Moreover, in data set [2] (60° C., Week 2), the “% Impurities” value came to 35.00%; the Assay % turned out to be 60.29%; the “Crystalline form (XRPD)” value is given as “Melted”; the HPLC peak RT 6.797 min, RRT 0.68 was determined as 0.31%. In addition, in data set [2] (60° C., Week 2), the HPLC peak RT 7.563 min, RRT 0.75 came to 4.12%; the HPLC peak RT 9.327 min, RRT 0.93 worked out at 0.14%; the HPLC peak RT 10.813 min, RRT 1.07 was 0.53%; the “HPLC peak RT 7.423 min, RRT 0.74” value is 13.51. Moreover, in data set [2] (60° C., Week 2), the “HPLC peak RT 10.063 min, RRT 1.00” value came to 65.0 and the “HPLC peak RT 10.277 min, RRT 1.02” value came out at 16.38. In addition, in data set [2] (60° C.), the “Stability under harsh conditions (in words)” value is listed as “high impurity content”. Also, in data set [2] (Day 0), the “% Impurities” value came to 0.85%; the Assay % turned out to be 100.00%; the “Crystalline form (XRPD)” value was “Free form”; the HPLC peak RT 9.327 min, RRT 0.93 was determined as 0.18%. Further, in data set [2] (Day 0), the HPLC peak RT 10.813 min, RRT 1.07 came to 0.66% and the “HPLC peak RT 10.063 min, RRT 1.00” value was 99.15.
Take `CNCc1cn(S(=O)(=O)c2ccc(OC)nc2)c(-c2ccccc2F)c1OC.O=C(O)/C=C/C(=O)O` [Fumarate salt, fumarate salt of 1-(5-(2-fluorophenyl)-4-methoxy-1-((6-methoxypyridin-3-yl)sulfonyl)-1H-pyrrole-3-yl)-N-methylmethanamine]: the “Hygroscopicity (DVS, in words)” value in data set [3] is “very low hygroscopicity”. In addition, the “Polymorphic change vs initial XRPD of crystalline Form I” value in data set [4] (8 weeks) is on record as “no polymorphic change”. In addition, the “Whether or not XRPD value changed” value in data set [4] (Experimental group 1 (vial with a wide mouth), Week 2) is “Same”; in data set [4] (Experimental group 1 (vial with a wide mouth), Week 2 (second line so printed, r7)) it was “Same”; in data set [4] (Experimental group 1 (vial with a wide mouth), Week 6), “Same”; in data set [4] (Experimental group 1 (vial with a wide mouth), Week 8), “Same”; in data set [4] (Experimental group 2 (vial double-packed with polyethylene bag), Week 2), “Same”; in data set [4] (Experimental group 2 (vial double-packed with polyethylene bag), Week 2 (second line so printed, r7)), “Same”. Further, the “Whether or not XRPD value changed” value in data set [4] (Experimental group 2 (vial double-packed with polyethylene bag), Week 6) is “Same”; in data set [4] (Experimental group 2 (vial double-packed with polyethylene bag), Week 8), “Same”. For the same compound, the “Hygroscopicity (TGA analysis, in words)” value in data set [4] (setting [6]) is “significantly low hygroscopicity”. Moreover, the “Purity (HPLC analysis, in words)” value in data set [4] (setting [6]) is recorded as “high purity”. The “Solubility (in words)” value in data set [1] (all of SGF, FaSSIF, and FeSSIF) was “excellent solubility”; in data set [1] (fasted state simulated intestinal fluid (FaSSIF)) it was “very good solubility”. Besides, the solubility at 1 h in data set [1] (simulated gastric fluid, SGF, 37° C.) was > 10000 µg/mL; in data set [1] (FaSSIF, 37° C.), 7910 µg/mL; in data set [1] (FeSSIF, 37° C.) it was 4500 µg/mL; in data set [1] (water, 37° C.), 6390 µg/mL. Moreover, the solubility at 24 h is > 10000 µg/mL in data set [1] (simulated gastric fluid, SGF, 37° C., 24 h); 7580 µg/mL in data set [1] (FaSSIF, 37° C., 24 h); 4440 µg/mL in data set [1] (FeSSIF, 37° C., 24 h); 5320 µg/mL in data set [1] (water, 37° C., 24 h). Further, the “% Impurities” value in data set [2] (60° C., Week 1) is given as 0.76%; in data set [2] (60° C., Week 2), 0.80%; in data set [2] (Day 0), 0.77%. Besides, the Assay % in data set [2] (60° C., Week 1) is listed as 105.69%; in data set [2] (60° C., Week 2) it was 94.74%; in data set [2] (Day 0), 100.00%. Also, the “Crystalline form (XRPD)” value in data set [2] (60° C., Week 1) is given as “Crystalline”; in data set [2] (60° C., Week 2), “Crystalline”; in data set [2] (Day 0), “Crystalline”. Besides, the HPLC peak RT 9.327 min, RRT 0.93 in data set [2] (60° C., Week 1) was determined as 0.17%; in data set [2] (60° C., Week 2), 0.18%; in data set [2] (Day 0), 0.17%. Further, the HPLC peak RT 10.813 min, RRT 1.07 in data set [2] (60° C., Week 1) amounted to 0.59%; in data set [2] (60° C., Week 2) it was 0.62%; in data set [2] (Day 0), 0.6%. In addition, the “HPLC peak RT 10.063 min, RRT 1.00” value in data set [2] (60° C., Week 1) is on record as 99.24; in data set [2] (60° C., Week 2) it was 99.20; in data set [2] (Day 0) it was 99.23. In addition, in data set [2] (60° C.), the “Stability under harsh conditions (in words)” value is “excellent stability”. In addition, in data set [5] (120° C., listed as Example 3), the “TGA weight loss (% w/w)” value is given as ~0.0307%,.
Regarding `CNCc1cn(S(=O)(=O)c2ccc(OC)nc2)c(-c2ccccc2F)c1OC.O=P(O)(O)O` [phosphate salt, Phosphate Salt of 1-(5-(2-fluorophenyl)-4-methoxy-1-((6-methoxypyridin-3-yl)sulfonyl)-1H-pyrrol-3-yl)-N-methylmethanamine], in data set [5], the “Hygroscopicity (from TGA, in words)” value was “high hygroscopicity” and the TGA weight loss came out at 1.0189%.
